Legend:
[1] = Peanut butter removal from coated metal mesh strips (cleaning/solvating action); details: neat solvents, 40° C., 20 minutes dip, 90 minutes drying
Source text: Peanut butter is a complex mixture of fats, carbohydrates and proteins that are emulsified in processing equipment under controlled conditions. Because of its composition that contains all the major food groups and because the product is made by controlled food processing methods, peanut butter was chosen for an initial cleaning examination. Commercially available […]® peanut butter made by Best Foods Company was used. Commercially available metal screen mesh (size 20 mesh) was cut into small (25 mm×75 mm), equal sized strips that were dipped into heated (about 50° C.) peanut butter and then drip dried in air. […] The strips were then dried under forced air at room temperature and their weights were measured periodically. After 90 minutes of drying the test results were evaluated to determine the comparative differences between the effects of the solvent compositions. Commercial grade of ethanol is typically denatured by small quantities of additives. Ethyl acetate is an approved denaturant for ethanol and it is non-toxic for food and biological related applications. In all of the examples for this invention the ethanol used was denatured by about 5% (w/w) ethyl acetate.

[2] = tested on: Salmonella Choleraesuis ATCC 10708; experiment: MiniTox bacteriostatic (MIC) test in microtiter plates; assay type: cell-based; details: diluted to the same extent as the blend
Source text: (§1) Methods to determine minimum inhibitory concentrations (MIC) of biocides or bacteriostatic agents that work in processing liquids to inhibit biological growth have been developed and optimized (U.S. Pat. No. 5,206,151). Typically, such MIC determinations involve (a) obtaining a known volume aliquot of the contaminated aqueous system and (b) adding thereto a known amount of an oxidation reduction indicator dye, which indicator dye is capable of reacting with dehydrogenase enzymes produced by the microbiological organisms, and also (c) adding sufficient nutrients capable of accelerating microbiological organism activity, thereby forming a reaction product between reducing enzymes and the oxidation-reduction indicator dye. Multiple aliquots of the indicator dye treated and nutrient treated, aqueous system are transferred to a microtitration plate containing multiple sample wells (d), each well containing but one of the multiple aliquots. (e) Serially diluted amounts of at least one antimicrobial agent is added to at least one column (or row) of these sample wells on the titration plate, provided that a single column (or row) is treated with only one antimicrobial agent, that at least one column (or row) is left untreated to thereby form a treated titration plate. The treated titration plate is incubated at a temperature essentially equivalent to the temperature of the contaminated aqueous system from which the aliquot was originally taken and maintained for a period of time sufficient to develop the change in the indicator dye color by the reaction of the indicator dye with reducing enzymes produced by nutrient acceleration of microbiological metabolism (f). The first change in color in dye relative to the untreated column is noted (g) to determine the minimum inhibitor concentration of antimicrobial agent that inhibits growth of microbiological organism contained in the contaminated aqueous system. Such a method is optimized under the Trademark of MiniToxTM and tests are routinely practiced and results provided by microbiological testing laboratories such as: The MicroStar Lab Ltd located at 130 Erick Street in Crystal Lake, Ill. 60014. […] This solution was kept as is at room temperature and hydrolysis of the ester continued. This solution was serially diluted with broth and media components for the MiniTox tests in microtiter plates. Two bacterial cultures Salmonella Choleraesuis ATCC 10708 and Listeria Monocytogenis ATCC 19115 were used for the studies. Bacteria of the Salmonella species are known pathogens that contaminate meat and vegetable types of food and Listeria species are known to contaminate milk and related foods.

[3] = tested on: Listeria Monocytogenis ATCC 19115; experiment: as above; assay type: cell-based; details: diluted to the same extent as the blend
Source text: as §1

[4] = for Viscosity: @ 25 C.
Source text: Properties of solvents are often evaluated and expressed in measured and calculated values of solubility parameters and a few other physical constants.

SPd (Disperse solubility parameter) [4]	SPo (Hildebrand solubility parameter) [4]	SPp (Polar solubility parameter) [4]	Compound	Percent Removal [1] [%]	Bacteriostatic activity alone, diluted to the same extent [2]	Bacteriostatic activity alone, diluted to the same extent [3]	SPh (hydrogen bonding parameter) [4]	Surface Tension [4] [mN/m]	Viscosity [4] [Cp]
7.7	13.0	4.3	CCO [Ethanol]	20.4	does not exhibit bacteriostatic activity	does not exhibit bacteriostatic activity	9.5	22.2	0.43
			CCOC(=O)C(C)O (stereo not drawn) [Ethyl lactate]	7.3	does not exhibit bacteriostatic activity	does not exhibit bacteriostatic activity	6.1	28.6	2.41

Source: patent US9963660B2, “Method of cleaning with enhanced bacteriostatic action using a composition of alcohol and lactate esters” (Vertec Biosolvent, Inc., priority 2015, dated 2018)
